US5523457A, “Retinoid-like compounds” (Bristol-Myers Squibb Company, priority 1995, dated 1996)
Like-named read-outs stand apart in the source and are kept apart here.

Key:
lung line L2987 = assay: Cytotoxicity assay (alamarBlue cell viability), lung line L2987, experiment 2; type: cell-based; conditions: Homo sapiens
Procedure: FIG. 1 is the cytotoxicity dose response curves for lung line L2987. […] Briefly, the assayed involved plating 1000 cells per well in a volume of 120 μL in a 96 well flat-bottom dish (Corning) on day -1. Twenty-four hours later the appropriate dilution of a compound of formula I was added in a volume of 30 μL complete medium (final volume 150 μL). The plates were sealed with a plate sealer (Dynatech Labs) to prevent evaporation. On day 5 the mylar film was removed and 15 μL of sterile alamarBlue was added to each well and the cells were incubated 37° C. 5% CO2 for two hours. Using a Vmax plate reader the optical density for each well was determined having the […]. The 100% signal was determined for cells grown in complete medium containing only 0.5% DMSO. All wells were set-up in triplicate and the mean values were plotted in FIG. 1.

[1] = system: second primary tumors in squamous-cell carcinoma of the head and neck; conditions: Hong et al., N. Engl. J. Med., 1990; cited from earlier work
[2] = L2987 lung line, 1000 cells per well, compound added 24 h after plating, read on day 5 with alamarBlue, triplicate wells, read-out: IC50 values for L2987 experiment 2

Structure (SMILES) | IC50 (lung line L2987; [2]) [µM] | other results
CC1=C(/C=C/C(C)=C/C=C/C(C)=C/C(=O)O)C(C)(C)CCC1 [All trans retinoic acid, reference compound] |  | IC50 (lung line L2987; L2987, read-out: IC50 values for L2987 experiment 2): 68 µM
O=C(O)c1ccc(NC(=O)c2ccc3cccc(-c4ccccc4)c3c2)cc1 [I^2' a, 4-[[(8-phenyl-2-naphthalenyl)carbonyl]amino]benzoic acid] | 72 | 
Cc1cc(C)cc(-c2cccc3ccc(C(=O)Nc4ccc(C(=O)O)cc4)cc23)c1 [I^2' b, 4-[[[8(3,5-Dimethylphenyl)-2-naphthalenyl]carbonyl]amino]benzoic acid] | 39 | 
Cc1ccc(-c2cccc3ccc(C(=O)Nc4ccc(C(=O)O)cc4)cc23)cc1C [I^2' f, 4-[[[8-(3,4-Dimethylphenyl)-2-naphthalenyl]carbonyl]amino]benzoic acid] | 49 | 
Cc1ccc(-c2cccc3ccc(C(=O)Nc4ccc(C(=O)O)cc4)cc23)c(C)c1 [I^2' g, 4-[[[8-(2,4 -Dimethylphenyl)-2-naphthalenyl]carbonyl]amino]benzoic acid] | 54 | 
CC1=C(/C=C/C(C)=C/C=C/C(C)=C\C(=O)O)C(C)(C)CCC1 [Isotretinoin] |  | prevention of second primary tumors in squamous-cell carcinoma of the head and neck [1]: shown to be useful in prevention of second primary tumors
